This is an account of results in publication PMC9738531, “Cholinesterases Inhibition, Anticancer and Antioxidant Activity of Novel Benzoxazole and Naphthoxazole Analogs” (Molecules, 2022).

Data set [1] relates to HCV29T (bladder cancer) cells. Nature of the data set: SRB antiproliferative assay, HCV29T. The data set is classed as cell-based, human. As to conditions: Homo sapiens, HCV29T, 72 h, means ± SD, read-out: IC50 HCV 29T. The protocol: (§1) The compounds were also evaluated for their antiproliferative potencies against human cancer cell lines as the potential anticancer agents. […]. The results are presented in Table 3 and expressed as IC50 (μM). In that score, the highest potency was shown by the analogs from the naphtho[1,2-d][1,3]oxazole group 8–10, particularly by derivative 10 with a chlorine atom on the benzenediol moiety.
(§2) In the antiproliferative assay in vitro, the following human cell lines were applied: T47D (breast cancer), SW707 (rectal adenocarcinoma), A549 (non-small cell lung carcinoma) from the American Type Culture Collection (Rockville, MD, USA) and HCV29T (bladder cancer) from the Fibiger Institute, Copenhagen, Denmark. Cytotoxicity assay was performed after 72 h exposure of the cultured cells at the concentration ranging from 0.1 to 100 μg/mL of the tested agents. The SRB test measuring the cell proliferation inhibition in the in vitro culture was applied. The cellular material fixed with TCA was stained with 0.4% sulforhodamine B (Chemie GmbH, Steinheim, Germany) dissolved in 1% acetic acid (POCh, Gliwice, Poland) for 30 min.
(Sulforhodamine B stains cellular protein and so reports cell mass.)

A short description of data set [2]: DPPH free radical scavenging activity. As to conditions: concentration scavenging 50% of DPPH radicals; means ± SD of three experiments. The protocol: To evaluate the antioxidant potential of compounds as radical scavengers versus the stable free radicals, 2,2-diphenylpicrylhydrazyl (DPPH) was applied. Antioxidant properties were expressed as the IC50 value—the concentration of compound required for scavenging 50% of DPPH radicals. […].
The DPPH free radical scavenging activities of the synthesized compounds were measured by DPPH, according to the method described in the paper. The free radical scavenging activity was measured as a decrease in the absorbance of DPPH, and calculated using the equation:DPPH scavenging effects (%) = […] [(A0 − A1)/A0]∙100](2) where: A0 was the absorbance of the control reaction and A1 absorbance in the presence of the sample of the analysed compounds [62]. The IC50 values were calculated as the concentration of compound required for scavenging 50% of DPPH [45]. Results were presented as the mean ± standard deviation (SD). The antioxidant activity data were compared using the one-way ANOVA test at the significance level 5%.
Background: DPPH is a stable violet radical that fades when it is reduced.

Data set [3] concerns T47D (breast cancer) cells. Nature of the data set: SRB antiproliferative assay, T47D. To be noted: Homo sapiens, T47D, 72 h, means ± SD. It is filed as cell-based, human. Here is the method: as §1, §2
Data set [4] relates to normal mammary gland MCF10A cells. Nature of the data set: LDH cytotoxicity assay, MCF10A normal cells. It is filed as cell-based, human. As to conditions: 72 h. The protocol: (§3) In view of the observed antiproliferative activity, the influence of the tested compounds on the normal human cells—normal mammary gland epiterial cells of the MCF10A line and the normal keratenocytes HaCaT line—was examined (Figure 5). The cells were treated with compounds 3, 8 and 10 in the concentration range from 0.1 µM to 25 µM for 72 h, after which the cell viability was tested by analysis of the level of released lactate dehydrogenase (LDH method).
(§4) Normal human epithelial cells from the mammary gland, MCF10A (a generous gift from our colleague Dr. Saraswati Sukumar (JHU), who obtained them recently from ATCC), and normal human keratinocytes HaCaT (also obtained from ATCC), were cultured in DMEM/F12 medium (Gibco), supplemented with 5% horse serum (Gibco), 5% FBS (Sigma-Aldrich Chemie GmbH, Taufkirchen, Germany ), penicillin streptomycin solution (1×) (Gibco) at 37 °C and 5% CO2. The cells were subcultured twice a week.
(§5) Human epiterial breast cells MCF10A and human keratinocytes HaCaT (1 × 10^4/mL) cells were placed on 96-well plates (Nunc, Roskilde, Denmark). The next day, the cells were exposed to increasing concentrations of compounds 3, 8 and 10 in 0.1, 0.25, 0.5, 1, 2.5, 5, 10 and 25 μM in fresh culture medium. Cytotoxicity was estimated based on the measurements of cytoplasmic lactate dehydrogenase (LDH) activity released from the damaged cells after the 72 h exposure to the compounds. The LDH assay was performed according to the manufacturer’s instructions (Cytotoxicity Detection KitPLUS LDH, Roche, Mannheim, Germany). Absorbance was measured using a microplate at two different wavelengths: “measurement wavelength” (492 nm) and “reference wavelength” (690 nm), using a microplate.

Data set [5] is described as follows: Lipophilicity by RP-18 HPLC chromatography. The data set is classed as physicochemical. To be noted: for -S (slope of log k vs MeOH fraction): MeOH/acetate buffer, pH 7.4; for log kw: pH 7.4, extrapolation to pure water as mobile phase. The text has this:
The lipophilicity parameter was estimated for the tested compounds as it is an important feature that influences the pharmacokinetic properties of bioactive compounds [46, 47]. Lipophilicity also determines some biological activities, such as the antiproliferative or fungistatic activity. For lipophilicity determination, reversed-phase column chromatography was used, with the octadecyl C-18 stationary phase and MeOH as the organic modifier in the isocratic conditions.
HPLC measurements were performed using a liquid chromatograph (Knauer, Berlin, Germany) with a dual pump and a UV-visible detector. The measurements were made at 254 or 320 nm at room temperature. A Eurosil Bioselect C18 (5 μm, 300 × 4.6 mm) column was applied as the stationary phase. The mobile phase consisted of different volume mixtures of 20 mM acetate buffer as the aqueous phase, and MeOH as the organic modifier (pH 7.4). The different concentrations of MeOH from 0.5 to 0.90 (v/v) range was used, depending on the structure of the compound at 0.05 intervals. The flow rate was 1 mL/min. Retention time of an unretained solute (t0) was determined by the injection of a small amount of acetone dissolved in water.
Regular changes in the retention coefficients of compounds in a function of the organic modifier MeOH content in the mobile phase are described by the Soczewiński–Wachtmeister equation [56]:log k = log kw + S φ(1)
φ—the volume fraction of organic modifier (MeOH) in the mobile phase; log kw—the intercept; S—slope of the regression curve. Log kw refers to the retention parameter of a compound with pure water as the mobile phase.

The test system of data set [6] is normal keratinocytes HaCaT cells. Nature of the data set: LDH cytotoxicity assay, HaCaT normal cells. The data set is classed as cell-based, human. As to conditions: HaCaT, 72 h. Here is the method:
as §3, §4, §5

Data set [7] concerns A549 (non-small cell lung carcinoma) cells. Nature of the data set: SRB antiproliferative assay, A549. The data set is classed as cell-based, human. As to conditions: Homo sapiens, A549, 72 h, means ± SD. Here is the method: as §1, §2
Data set [8] deals with SW707 (rectal adenocarcinoma) cells. Kind of data set: SRB antiproliferative assay, SW707. The data set is classed as cell-based, human. To be noted: Homo sapiens, SW707, 72 h, means ± SD, read-out: IC50 SW 707. The protocol: as §1, §2
Data set [9] has as its target T1, Acetylcholinesterase (AChE, E.C. 3.1.1.7, from human erythrocytes) (Homo sapiens, UniProt P22303).
T1 construct: Acetylcholinesterase (AChE, E.C. 3.1.1.7, from human erythrocytes); purchased Sigma-Aldrich (Steinheim, Germany); host or cells: human erythrocytes (natural source)
Kind of data set: biochemical. As to conditions: for IC50: means ± SEM of three independent experiments. Here is the method:
(§6) The compounds were evaluated by an in vitro assay as the AChE and BChE inhibitors. The studies were carried out using the modified Ellman’s method. […] The inhibitory activities against AChE and BChE of the newly-synthesized compounds were determined exactly, according to a previous paper. […] The samples were analysed in triplicate. IC50 values were designated from a dose–response curve obtained by plotting the percentage of inhibition versus the log concentration, using GraphPad Prism 8 software. […] AChE and BChE activity data were compared using the Kruskal–Wallis test at the significance level of 1%.

The target of data set [10] is T2, butyrylcholinesterase (BChE, E.C. 3.1.1.8, from equine serum) (Equus caballus, UniProt P81908).
T2 construct: butyrylcholinesterase (BChE, E.C. 3.1.1.8, from equine serum); purchased Sigma-Aldrich (Steinheim, Germany); host or cells: equine serum (natural source)
T2 sequence (P81908 whole entry): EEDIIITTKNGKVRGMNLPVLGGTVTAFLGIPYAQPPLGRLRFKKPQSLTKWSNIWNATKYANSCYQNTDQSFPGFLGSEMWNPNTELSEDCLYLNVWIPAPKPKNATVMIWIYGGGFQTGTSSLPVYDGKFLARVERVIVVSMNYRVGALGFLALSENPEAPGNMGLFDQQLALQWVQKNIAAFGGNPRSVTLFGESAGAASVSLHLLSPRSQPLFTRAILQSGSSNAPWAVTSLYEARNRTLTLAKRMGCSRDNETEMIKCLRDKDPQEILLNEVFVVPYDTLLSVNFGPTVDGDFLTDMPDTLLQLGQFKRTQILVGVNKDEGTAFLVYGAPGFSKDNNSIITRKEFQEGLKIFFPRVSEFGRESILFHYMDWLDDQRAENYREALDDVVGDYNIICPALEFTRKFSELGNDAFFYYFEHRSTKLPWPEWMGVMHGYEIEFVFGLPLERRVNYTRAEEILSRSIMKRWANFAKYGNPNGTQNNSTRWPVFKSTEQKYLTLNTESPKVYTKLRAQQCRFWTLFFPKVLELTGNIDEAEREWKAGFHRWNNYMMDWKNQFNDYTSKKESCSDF
Kind of data set: biochemical. To be noted: means ± SEM of three independent experiments. The protocol: as §6

Data set [11] deals with T3, AChE (Homo sapiens, UniProt P22303).
T3 construct: Acetylcholinesterase (AChE, E.C. 3.1.1.7, from human erythrocytes); purchased Sigma-Aldrich (Steinheim, Germany); host or cells: human erythrocytes (natural source)
T3 sequence (P22303 other isoform, or with tags, fused parts or gaps): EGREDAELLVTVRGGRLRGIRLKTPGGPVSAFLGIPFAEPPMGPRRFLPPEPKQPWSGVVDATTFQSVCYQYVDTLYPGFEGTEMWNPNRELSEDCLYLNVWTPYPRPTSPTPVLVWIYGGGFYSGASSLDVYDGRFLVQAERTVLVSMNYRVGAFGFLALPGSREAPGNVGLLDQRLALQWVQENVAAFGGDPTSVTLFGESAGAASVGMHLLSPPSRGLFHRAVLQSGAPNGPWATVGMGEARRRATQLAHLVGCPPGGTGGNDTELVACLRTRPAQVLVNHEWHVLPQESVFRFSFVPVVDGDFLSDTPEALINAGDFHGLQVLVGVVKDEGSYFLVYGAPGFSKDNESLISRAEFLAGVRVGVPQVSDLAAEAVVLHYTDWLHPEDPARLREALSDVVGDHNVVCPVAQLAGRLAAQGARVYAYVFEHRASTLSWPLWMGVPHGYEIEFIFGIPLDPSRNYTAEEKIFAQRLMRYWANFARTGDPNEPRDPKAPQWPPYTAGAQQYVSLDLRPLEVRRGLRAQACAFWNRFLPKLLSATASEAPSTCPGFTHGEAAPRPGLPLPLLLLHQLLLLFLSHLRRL
Kind of data set: Kinetic study of AChE inhibition (Lineweaver-Burk). The data set is classed as biochemical. To be noted: for type of AChE inhibition: Lineweaver-Burk plot. The protocol: Ellman’s method was used to prepare a kinetic characterization of AChE inhibition for compound 8. […]. The tested medium contained DTNB solution (0.4 mg/mL), AChE solution (2 U/mL), solution of the examined compound 8, and different concentrations of the ATCh iodide substrate solution (S). Absorbance was detected at 412 nm at room temperature after 10 min. The obtained data were calculated and presented on the Lineweaver–Burk plot. The determined the Michaelis–Menten constant (KM) and the maximum velocity of the enzyme (Vmax) values were used to define the type of enzyme inhibition.

Data set [12] concerns human cancer cell lines (HCV29T, T47D, A549, SW707). Kind of data set: SRB antiproliferative assay, all studied cancer cell lines. It is filed as cell-based. As to conditions: read-out: IC50 range against all studied cells. Here is the method:
as §1, §2

T1 sequence (P22303 other isoform, or with tags, fused parts or gaps): as above

Broadly, the IC50 is the concentration that gives 50% inhibition. Consider `Oc1ccc(-c2nc3c(ccc4ccccc43)o2)c(O)c1` [Compound 8, 4-(Naphtho[1,2-d][1,3]oxazol-2-yl)benzene-1,3-diol], for which the IC50 in [1] amounted to 2500 ± 1880 nM; in data set [2], 452 ± 31 nM; in data set [3], 2860 ± 180 nM; in [7], 4.17 ± 0.19 µM; in data set [8], 3.35 ± 0.16 µM; in [9] it was 58 ± 10 nM. Half-maximal inhibition in data set [10] (IC50) required 981 ± 15 nM. In addition, the “influence on mammary cells viability (LDH)” value in data set [4] (0.1–5 µM) is recorded as “no influence”. The “-S (slope of log k vs MeOH fraction)” value in data set [5] is on record as 4.263. In addition, the log kw in data set [5] is on record as 3.936. Moreover, the “toxicity to keratinocytes (LDH release)” value in data set [6] (whole tested range 0.1–25 µM) was “toxic”. Also, the entries for the “type of AChE inhibition” value in data set [11] and in [11] (listed as 4-(Naphtho[1,2-d][1,3]oxazol-2-yl)benzene-1,3-diol) were “mixed-type inhibitor” and “mixed-type inhibition”, respectively. The Vmax in data set [11] (compound 8 concentration 25 nM) is 0.031 A/min; in data set [11] (compound 8 concentration 50 nM) it was 0.023 A/min; in data set [11] (compound 8 concentration 75 nM), 0.021 A/min.

For `Oc1cc(O)c(-c2nc3c(ccc4ccccc43)o2)cc1Cl` [Compound 10, 4-Chloro-6-(naphtho[1,2-d][1,3]oxazol-2-yl)benzene-1,3-diol], the IC50 in data set [12] was 2180 to 2890 nM; in data set [1], 2240 ± 830 nM; in [2], 633 ± 146 nM; in data set [3], 2180 ± 1050 nM; in [7] it was 2.71 ± 0.12 µM; in data set [8], 2.89 ± 0.34 µM. In addition, the IC50 was determined as 694 ± 11 nM in data set [9] and 887 ± 41 nM in [10]. The “change in level of lactate dehydrogenase” value in data set [4] (0.1–5 µM, vs control) was “statistically significant reduction”. The “toxicity to normal breast cells (LDH release)” value in data set [4] (tested concentration to 25 µM) is recorded as “not toxic”. Also, the “-S (slope of log k vs MeOH fraction)” value in [5] worked out at 4.996. Moreover, in [5], the log kw is 4.518. In data set [6] (tested concentration to 25 µM), the “toxicity to keratinocytes (LDH release)” value is recorded as “not toxic”. In data set [9] (IC50 (BChE)/IC50 (AChE)), the “Selectivity for AChE” value is listed as 1.278.
